pIC50: −log10 of the molar value.

Holding throughout (format): cell-based
For test [1], the target named is T1, EGFR V3 (Homo sapiens, UniProt P00533, DELINS30-297G).
T1 construct: expressed in transfected cells; host or cells: BaF3 (murine pro-B), retroviral pMXs-IRES-Blasticidin
Put plainly: BaF3 cell proliferation assay, EGFR V3 (Table A). To be noted: potency code, 3 days, CellTiterGlo, read-out: EGFR V3 (Activity for Inhibiting EGFR). The method, then: (§1) Retroviral Production: EGFR mutants were subcloned into pMXs-IRES-Blasticidin (RTV-016, Cell Biolabs, San Diego, Calif.). Retroviral expression vector retrovirus was produced by transient transfection of HEK 293T cells with the retroviral EGFR mutant expression vector pMXs-IRES-Blasticidin (RTV-016, Cell Biolabs), pCMV-Gag-Pol vector and pCMV-VSV-G-Envelope vector. Briefly, HEK 293T/17 cells were plated in 100 mm collagen coated plate (354450, Corning Life Sciences, Tewksbury, Mass.) (4×10^5 per plate) and incubated overnight. The next day, retroviral plasmids (3 μg of EGFR mutant, 1.0 μg of pCMV-Gag-Pol and 0.5 μg pCMV-VSV-G) were mixed in 500 μl of Optimem (31985, Life Technologies). The mixture was incubated at room temperature for 5 min and then added to Optimem containing transfection reagent Lipofectamine (11668, Invitrogen) and incubated for 20 minutes. Mixture was then added dropwise to HEK 293T cells. The next day the medium was replaced with fresh culture medium and retrovirus was harvested @ 24 and 48 hrs.
(§2) Generation of EGFR mutant stable cell lines: BaF3 cells (1.5E5 cells) were infected with 1 ml of viral supernatant supplemented with 8 μg/ml polybrene by centrifuging for 30 min at 1000 rpm. Cells were placed in a 37° C. incubator overnight. Cells were then spun for 5 minutes to pellet the cells. Supernatant was removed and cells re-infected a fresh 1 ml of viral supernatant supplemented with 8 μg/ml polybrene by centrifuging for 30 min at 1000 rpm. Cells were placed in 37° C. incubator overnight. […] After 48 hours cells were selected for retroviral infection in 10 μg/ml Blasticidin for one week. Blasticidin resistant populations were washed twice in phosphate buffered saline before plating in media lacking IL-3 to select for IL-3 independent growth.
(§3) EC50 values were determined with the same application.

Test [2] has as its target T2, EGFR WT (Homo sapiens, UniProt P00533). Put plainly: Activity for inhibiting EGFR (Table A), EGFR WT. To be noted: read-out: EGFR WT, potency code (IC50).
Test [3] deals with T3, HER2 S310F (Homo sapiens, UniProt P04626, S310F).
T3 construct: expressed in transfected cells; host or cells: BaF3 (murine pro-B)
The test is described as follows: Activity for inhibiting HER2 (Table B), HER2 S310F. The following applies: read-out: HER2 S310F, potency code (IC50). As to the method:
as §3

For test [4], the target named is T2, EGFR WT. Put plainly: BaF3 cell proliferation assay, EGFR WT (Table A). To be noted: potency code, 3 days, CellTiterGlo, read-out: EGFR WT (Activity for Inhibiting EGFR). As to the method:
as §1, §2, §3
A general note: ATP-based viability assays read luminescence as a measure of living cells.

Test [5] concerns the target T1, EGFR V3. Put plainly: Activity for inhibiting EGFR (Table A), EGFR V3 (EGFR-Viii). The following applies: read-out: EGFR V3, potency code (IC50).
Test [6] has as its target T3, HER2 S310F. The test is described as follows: BaF3 cell proliferation assay, HER2 S310F (Table B). The following applies: potency code, 3 days, CellTiterGlo, read-out: HER2 S310F (Activity for Inhibiting HER2).
Test [7] addresses T4, HER2 YVMA (Homo sapiens, UniProt P04626, INS775YVMA).
T4 construct: expressed in transfected cells; host or cells: BaF3 (murine pro-B)
The test is described as follows: BaF3 cell proliferation assay, HER2 YVMA (Table B). To be noted: potency code, 3 days, CellTiterGlo, read-out: HER2 YVMA (Activity for Inhibiting HER2).

In test [8] the target is T4, HER2 YVMA. The test is described as follows: Activity for inhibiting HER2 (Table B), HER2 YVMA. To be noted: read-out: HER2 YVMA, potency code (IC50). As to the method: as §3

T2 sequence (P00533 25-1210 N540K): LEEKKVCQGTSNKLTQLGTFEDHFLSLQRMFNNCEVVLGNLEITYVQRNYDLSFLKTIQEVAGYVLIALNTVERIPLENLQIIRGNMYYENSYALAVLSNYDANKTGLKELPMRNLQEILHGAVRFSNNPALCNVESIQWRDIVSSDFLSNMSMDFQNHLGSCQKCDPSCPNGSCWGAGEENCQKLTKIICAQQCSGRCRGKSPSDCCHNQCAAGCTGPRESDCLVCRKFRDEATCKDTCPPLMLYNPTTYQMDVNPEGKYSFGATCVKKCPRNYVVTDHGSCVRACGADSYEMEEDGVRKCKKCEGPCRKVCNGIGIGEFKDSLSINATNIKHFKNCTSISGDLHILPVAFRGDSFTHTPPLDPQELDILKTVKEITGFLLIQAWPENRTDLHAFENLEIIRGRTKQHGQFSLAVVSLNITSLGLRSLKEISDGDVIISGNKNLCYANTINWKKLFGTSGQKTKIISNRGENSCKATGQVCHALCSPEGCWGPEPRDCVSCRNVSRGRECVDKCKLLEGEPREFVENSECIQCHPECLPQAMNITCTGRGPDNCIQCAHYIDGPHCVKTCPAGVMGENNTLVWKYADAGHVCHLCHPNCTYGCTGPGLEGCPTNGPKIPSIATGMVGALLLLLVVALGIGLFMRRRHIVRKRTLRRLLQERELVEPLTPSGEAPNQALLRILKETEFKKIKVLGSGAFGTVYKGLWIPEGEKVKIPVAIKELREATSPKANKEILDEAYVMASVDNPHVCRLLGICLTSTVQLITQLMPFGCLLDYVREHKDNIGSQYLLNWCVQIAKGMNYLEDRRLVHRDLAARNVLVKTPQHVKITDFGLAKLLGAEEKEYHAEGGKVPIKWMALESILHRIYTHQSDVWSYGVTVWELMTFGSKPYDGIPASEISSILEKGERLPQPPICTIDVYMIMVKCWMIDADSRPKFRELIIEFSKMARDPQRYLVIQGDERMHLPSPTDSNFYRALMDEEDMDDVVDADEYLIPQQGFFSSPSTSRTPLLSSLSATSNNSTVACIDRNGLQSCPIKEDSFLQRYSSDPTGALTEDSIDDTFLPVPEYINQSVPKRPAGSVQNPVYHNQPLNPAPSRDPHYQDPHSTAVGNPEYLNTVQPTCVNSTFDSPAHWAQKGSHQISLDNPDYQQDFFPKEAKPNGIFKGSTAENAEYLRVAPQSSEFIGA
T1 sequence (P00533 with tags, fused parts or gaps DELINS30-297G): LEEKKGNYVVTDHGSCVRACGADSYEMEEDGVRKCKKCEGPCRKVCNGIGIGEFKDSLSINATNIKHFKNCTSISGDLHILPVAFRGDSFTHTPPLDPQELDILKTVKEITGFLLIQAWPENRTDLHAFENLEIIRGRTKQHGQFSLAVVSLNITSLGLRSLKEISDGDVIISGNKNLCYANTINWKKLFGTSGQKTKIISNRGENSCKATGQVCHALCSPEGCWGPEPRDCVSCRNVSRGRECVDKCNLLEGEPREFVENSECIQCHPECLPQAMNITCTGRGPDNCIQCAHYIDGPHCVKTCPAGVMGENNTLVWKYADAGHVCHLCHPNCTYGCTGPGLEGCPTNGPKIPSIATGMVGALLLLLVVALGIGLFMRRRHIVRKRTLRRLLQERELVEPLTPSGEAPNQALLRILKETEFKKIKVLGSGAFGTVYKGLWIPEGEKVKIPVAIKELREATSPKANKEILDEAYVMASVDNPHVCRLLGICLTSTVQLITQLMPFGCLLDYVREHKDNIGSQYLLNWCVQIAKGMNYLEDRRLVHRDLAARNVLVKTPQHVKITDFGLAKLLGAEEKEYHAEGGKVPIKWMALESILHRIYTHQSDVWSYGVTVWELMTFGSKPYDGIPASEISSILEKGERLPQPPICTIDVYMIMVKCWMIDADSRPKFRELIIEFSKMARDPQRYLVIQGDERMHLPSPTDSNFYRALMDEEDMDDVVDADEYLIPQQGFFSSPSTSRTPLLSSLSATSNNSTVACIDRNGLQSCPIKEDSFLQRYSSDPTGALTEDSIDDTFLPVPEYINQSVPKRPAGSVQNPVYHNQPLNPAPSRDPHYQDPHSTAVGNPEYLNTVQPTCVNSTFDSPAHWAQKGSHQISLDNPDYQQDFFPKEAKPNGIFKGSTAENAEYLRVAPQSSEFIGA
T3 sequence (P04626 23-1255 S310F): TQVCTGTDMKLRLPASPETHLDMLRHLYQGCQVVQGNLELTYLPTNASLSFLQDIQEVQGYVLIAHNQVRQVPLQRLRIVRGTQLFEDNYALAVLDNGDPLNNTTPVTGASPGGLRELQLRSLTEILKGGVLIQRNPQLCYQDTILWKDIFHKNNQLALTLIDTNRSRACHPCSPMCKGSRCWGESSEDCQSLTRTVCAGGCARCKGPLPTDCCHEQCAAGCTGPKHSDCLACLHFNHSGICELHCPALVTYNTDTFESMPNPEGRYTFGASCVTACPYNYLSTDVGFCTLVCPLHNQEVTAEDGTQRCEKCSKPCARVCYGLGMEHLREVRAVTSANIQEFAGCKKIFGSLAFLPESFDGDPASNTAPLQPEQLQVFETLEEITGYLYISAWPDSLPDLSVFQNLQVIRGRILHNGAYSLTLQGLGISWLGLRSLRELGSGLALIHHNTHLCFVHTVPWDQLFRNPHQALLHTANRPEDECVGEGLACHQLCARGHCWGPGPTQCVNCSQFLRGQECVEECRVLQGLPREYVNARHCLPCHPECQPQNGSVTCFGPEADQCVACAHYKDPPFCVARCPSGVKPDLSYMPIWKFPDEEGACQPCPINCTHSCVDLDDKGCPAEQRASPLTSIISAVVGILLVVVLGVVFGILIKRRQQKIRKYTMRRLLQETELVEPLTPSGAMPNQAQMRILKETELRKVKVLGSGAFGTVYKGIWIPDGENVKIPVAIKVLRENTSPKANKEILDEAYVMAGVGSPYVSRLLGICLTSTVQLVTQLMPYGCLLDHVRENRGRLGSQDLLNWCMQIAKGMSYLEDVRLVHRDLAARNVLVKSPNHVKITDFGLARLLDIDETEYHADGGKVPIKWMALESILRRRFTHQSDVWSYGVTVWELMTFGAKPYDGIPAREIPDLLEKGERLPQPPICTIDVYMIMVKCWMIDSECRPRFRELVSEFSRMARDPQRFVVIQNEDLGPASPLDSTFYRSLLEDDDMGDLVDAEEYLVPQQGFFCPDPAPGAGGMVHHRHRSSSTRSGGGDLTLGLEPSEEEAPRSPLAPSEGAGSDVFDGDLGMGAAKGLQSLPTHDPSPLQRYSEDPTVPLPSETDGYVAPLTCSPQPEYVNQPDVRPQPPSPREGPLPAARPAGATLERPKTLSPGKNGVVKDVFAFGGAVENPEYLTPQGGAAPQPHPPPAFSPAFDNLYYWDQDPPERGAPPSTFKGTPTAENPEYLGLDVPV
T4 sequence (P04626 with tags, fused parts or gaps INS775YVMA): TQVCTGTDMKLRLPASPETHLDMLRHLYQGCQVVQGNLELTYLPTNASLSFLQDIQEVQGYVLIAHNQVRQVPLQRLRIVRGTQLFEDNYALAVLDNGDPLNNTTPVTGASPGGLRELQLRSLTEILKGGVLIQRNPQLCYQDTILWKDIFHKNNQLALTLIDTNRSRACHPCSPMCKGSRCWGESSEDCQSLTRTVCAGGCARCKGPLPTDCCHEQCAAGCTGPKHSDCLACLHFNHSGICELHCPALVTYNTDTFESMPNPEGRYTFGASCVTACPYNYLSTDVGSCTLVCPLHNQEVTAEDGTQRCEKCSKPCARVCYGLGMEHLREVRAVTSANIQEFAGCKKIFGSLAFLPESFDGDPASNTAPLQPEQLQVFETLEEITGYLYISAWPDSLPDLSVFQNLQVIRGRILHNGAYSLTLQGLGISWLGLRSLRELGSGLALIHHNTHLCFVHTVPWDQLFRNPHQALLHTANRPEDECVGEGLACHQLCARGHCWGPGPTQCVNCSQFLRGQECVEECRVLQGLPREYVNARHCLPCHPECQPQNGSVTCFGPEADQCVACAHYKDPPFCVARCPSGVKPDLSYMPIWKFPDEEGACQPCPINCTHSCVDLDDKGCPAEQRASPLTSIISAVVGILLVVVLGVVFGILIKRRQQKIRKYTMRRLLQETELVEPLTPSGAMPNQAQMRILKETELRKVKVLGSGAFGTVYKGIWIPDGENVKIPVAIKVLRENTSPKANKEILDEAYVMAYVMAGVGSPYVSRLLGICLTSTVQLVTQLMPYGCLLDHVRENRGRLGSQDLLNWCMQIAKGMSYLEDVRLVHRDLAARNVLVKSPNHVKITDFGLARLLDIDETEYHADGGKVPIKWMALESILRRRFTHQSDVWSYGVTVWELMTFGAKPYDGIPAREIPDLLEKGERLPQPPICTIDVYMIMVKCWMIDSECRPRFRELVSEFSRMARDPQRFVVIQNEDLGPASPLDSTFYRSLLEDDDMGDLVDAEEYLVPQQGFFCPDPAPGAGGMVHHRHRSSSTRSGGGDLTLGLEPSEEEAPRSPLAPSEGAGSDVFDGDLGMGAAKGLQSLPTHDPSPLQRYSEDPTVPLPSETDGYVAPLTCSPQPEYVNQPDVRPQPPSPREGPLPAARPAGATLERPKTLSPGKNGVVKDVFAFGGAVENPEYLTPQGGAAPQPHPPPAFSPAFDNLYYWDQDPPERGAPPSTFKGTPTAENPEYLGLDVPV

Turning to `C=CC(=O)Nc1cc2c(Nc3ccc(OCc4ccccn4)c(Cl)c3)ncnc2cc1O[C@H]1CCCN(C)CC1` [compound 99, N-(4-((3-chloro-4-(pyridin-2-ylmethoxy)phenyl)amino)-7-((1-methylazepan-4-yl)oxy)quinazolin-6-yl)acrylamide], the pIC50 was 7.52 to 7.70 at EGFR V3 [1]; 6.52 to 6.70 on EGFR WT [2]; 7.30 to 7.52 on HER2 S310F [3]; 6.52 to 6.70 on EGFR WT [4]; 7.52 to 7.70 at EGFR V3 [5]; 7.30 to 7.52 on HER2 S310F [6]. Further, the pIC50 at HER2 YVMA [7] and at HER2 YVMA [8] was 6.52 to 6.70 each time.
Consider `C=CC(=O)Nc1cc2c(Nc3cc(C)c(OCc4ccccn4)cc3F)ncnc2cc1OCCN1CCOCC1` [compound 100, N-(4-((2-fluoro-5-methyl-4-(pyridin-2-ylmethoxy)phenyl)amino)-7-(2-morpholinoethoxy)quinazolin-6-yl)acrylamide], for which the pIC50 is 7.30 to 7.52 on EGFR V3 [1]; 6.30 to 6.52 at EGFR WT [2]; 7.00 to 7.30 on HER2 S310F [3]; 6.30 to 6.52 on EGFR WT [4]; 7.30 to 7.52 on EGFR V3 [5]; 7.00 to 7.30 on HER2 S310F [6]. The pIC50 on HER2 YVMA [7] and at HER2 YVMA [8] was 6.30 to 6.52 each time.
Regarding `C=CC(=O)Nc1cc2c(Nc3ccc(OCc4ccccn4)c(Cl)c3)ncnc2cc1OC[C@H]1CCN(C)C1` [compound 101, N-(4-((3-chloro-4-(pyridin-2-ylmethoxy)phenyl)amino)-7-((1-methylpyrrolidin-3-yl)methoxy)quinazolin-6-yl)acrylamide], the pIC50 at EGFR V3 [1] was 7.70 to 8.00; on EGFR WT [2] it was 6.70 to 7.00; at HER2 S310F [3], 7.70 to 8.00; on EGFR WT [4] it was 6.70 to 7.00; at EGFR V3 [5] it was 7.70 to 8.00; at HER2 S310F [6] it was 7.70 to 8.00. Further, the pIC50 at HER2 YVMA [7] and at HER2 YVMA [8] was 7.30 to 7.52 each time.
On to `C=CC(=O)Nc1cc2c(Nc3ccc(OCc4ccccn4)c(Cl)c3)ncnc2cc1OC[C@H]1C[C@@H]2CN(C)C[C@@H]2C1` [compound 103, N-(4-((3-chloro-4-(pyridin-2-ylmethoxy)phenyl)amino)-7-(((3aR,5s,6aS)-2-methyloctahydrocyclopenta[c]pyrrol-5-yl)methoxy)quinazolin-6-yl)acrylamide], for which the pIC50 at EGFR V3 [1] was 7.30 to 7.52; at EGFR WT [2], 6.52 to 6.70; at HER2 S310F [3], 7.70 to 8.00; on EGFR WT [4], 6.52 to 6.70; at EGFR V3 [5], 7.30 to 7.52; at HER2 S310F [6], 7.70 to 8.00. Moreover, the pIC50 on HER2 YVMA [7] and on HER2 YVMA [8] was 7.00 to 7.30 throughout.
Turning to `C=CC(=O)Nc1cc2c(Nc3ccc(Oc4ccc(C)nc4)c(C)c3)ncnc2cc1C#C[C@@H]1[C@H]2CN(C)C[C@@H]12` [compound 104, N-(7-(((1R,5S,6s)-3-methyl-3-azabicyclo[3.1.0]hexan-6-yl)ethynyl)-4-((3-methyl-4-((6-methylpyridin-3-yl)oxy)phenyl)amino)quinazolin-6-yl)acrylamide], the pIC50 on EGFR V3 [1] was 7.30 to 7.52; at EGFR WT [2], 7.52 to 7.70; on HER2 S310F [3], 7.30 to 7.52; on EGFR WT [4], 7.52 to 7.70; on EGFR V3 [5], 7.30 to 7.52; at HER2 S310F [6] it was 7.30 to 7.52. Further, the pIC50 at HER2 YVMA [7] and at HER2 YVMA [8] was 7.30 to 7.52 in each case.
With `C=CC(=O)Nc1cc2c(Nc3ccc(OCc4ccccn4)c(Cl)c3)ncnc2cc1C#CC1[C@H]2CNC[C@@H]12` (stereo partly drawn) [compound 105, N-(7-((1R,5S,6s)-3-azabicyclo[3.1.0]hexan-6-ylethynyl)-4-((3-chloro-4-(pyridin-2-ylmethoxy)phenyl)amino)quinazolin-6-yl)acrylamide], the pIC50 at EGFR V3 [1] was 7.00 to 7.30; on EGFR WT [2], 6.00 to 6.30; on HER2 S310F [3] it was 7.30 to 7.52; at EGFR WT [4] it was 6.00 to 6.30; at EGFR V3 [5] it was 7.00 to 7.30; on HER2 S310F [6], 7.30 to 7.52. The pIC50 on HER2 YVMA [7] and at HER2 YVMA [8] was 6.70 to 7.00 each time.
In the case of `C=CC(=O)Nc1cc2c(Nc3ccc(Oc4ccccc4)cc3)ncnc2cc1C#C[C@@H]1[C@H]2CN(C)C[C@@H]12` [compound 106, N-(7-(((1R,5S,6s)-3-methyl-3-azabicyclo[3.1.0]hexan-6-yl)ethynyl)-4-((4-phenoxyphenyl)amino)quinazolin-6-yl)acrylamide], the pIC50 at EGFR V3 [1] was 7.30 to 7.52; at EGFR WT [2] it was 6.70 to 7.00; on HER2 S310F [3], 7.30 to 7.52; on EGFR WT [4], 6.70 to 7.00; at EGFR V3 [5], 7.30 to 7.52; on HER2 S310F [6], 7.30 to 7.52. For the same molecule, the pIC50 on HER2 YVMA [7] and at HER2 YVMA [8] was 6.70 to 7.00 in each case.
`CC#CC(=O)Nc1cc2c(Nc3ccc(OCc4ccccn4)c(Cl)c3)ncnc2cc1C#CC1[C@H]2CN(C)C[C@@H]12` (stereo partly drawn) [compound 107, N-(4-((3-chloro-4-(pyridin-2-ylmethoxy)phenyl)amino)-7-(((1R,5S,6s)-3-methyl-3-azabicyclo[3.1.0]hexan-6-yl)ethynyl)quinazolin-6-yl)but-2-ynamide]: the pIC50 is 7.00 to 7.30 at EGFR V3 [1]; 6.52 to 6.70 on EGFR WT [2]; 7.70 to 8.00 on HER2 S310F [3]; 6.52 to 6.70 on EGFR WT [4]; 7.00 to 7.30 on EGFR V3 [5]; 7.70 to 8.00 on HER2 S310F [6]. The pIC50 at HER2 YVMA [7] and on HER2 YVMA [8] was 7.30 to 7.52 in each case.
As for `CC#CC(=O)Nc1cc2c(Nc3ccc(Oc4ccccc4)cc3)ncnc2cc1C#C[C@@H]1[C@H]2CN(C)C[C@@H]12` [compound 108, N-(7-(((1R,5S,6s)-3-methyl-3-azabicyclo[3.1.0]hexan-6-yl)ethynyl)-4-((4-phenoxyphenyl)amino)quinazolin-6-yl)but-2-ynamide], the pIC50 was 6.70 to 7.00 at EGFR V3 [1]; 6.00 to 6.30 on EGFR WT [2]; 7.00 to 7.30 on HER2 S310F [3]; 6.00 to 6.30 on EGFR WT [4]; 6.70 to 7.00 at EGFR V3 [5]; 7.00 to 7.30 on HER2 S310F [6]. Besides, the pIC50 at HER2 YVMA [7] and on HER2 YVMA [8] was 6.00 to 6.30 throughout.
`C=C(F)C(=O)Nc1cc2c(Nc3ccc(OCc4ccccn4)c(Cl)c3)ncnc2cc1OCCN1CCOCC1` [compound 109, N-(4-((3-chloro-4-(pyridin-2-ylmethoxy)phenyl)amino)-7-(2-morpholinoethoxy)quinazolin-6-yl)-2-fluoroacrylamide]: the pIC50 on EGFR V3 [1] is 7.70 to 8.00; on EGFR WT [2], 7.30 to 7.52; at HER2 S310F [3], 7.70 to 8.00; at EGFR WT [4], 7.30 to 7.52; at EGFR V3 [5] it was 7.70 to 8.00; at HER2 S310F [6] it was 7.70 to 8.00. For the same molecule, the pIC50 at HER2 YVMA [7] and at HER2 YVMA [8] was 7.00 to 7.30 throughout.
Turning to `C=CC(=O)Nc1cc2c(Nc3ccc(OCc4ccccn4)c(Cl)c3)ncnc2cc1OC1CCN(C)CC1` [compound 110, N-(4-((3-chloro-4-(pyridin-2-ylmethoxy)phenyl)amino)-7-((1-methylpiperidin-4-yl)oxy)quinazolin-6-yl)acrylamide], the pIC50 on EGFR V3 [1] was 7.52 to 7.70; at EGFR WT [2] it was 6.52 to 6.70; at HER2 S310F [3] it was 7.30 to 7.52; at EGFR WT [4], 6.52 to 6.70; at EGFR V3 [5], 7.52 to 7.70; at HER2 S310F [6] it was 7.30 to 7.52. Moreover, the pIC50 at HER2 YVMA [7] and on HER2 YVMA [8] was 6.52 to 6.70 in each case.
Regarding `C=CC(=O)Nc1cc2c(Nc3ccc(OCc4ccccn4)c(Cl)c3)ncnc2cc1OCCN1CCC(O)CC1` [compound 111, N-(4-((3-chloro-4-(pyridin-2-ylmethoxy)phenyl)amino)-7-(2-(4-hydroxypiperidin-1-yl)ethoxy)quinazolin-6-yl)acrylamide], the pIC50 is 7.30 to 7.52 on EGFR V3 [1]; 6.30 to 6.52 on EGFR WT [2]; 7.30 to 7.52 at HER2 S310F [3]; 6.30 to 6.52 on EGFR WT [4]; 7.30 to 7.52 on EGFR V3 [5]; 7.30 to 7.52 on HER2 S310F [6]. The pIC50 at HER2 YVMA [7] and on HER2 YVMA [8] was 6.70 to 7.00 throughout.

The values are drawn from US11034672B1, “Tyrosine kinase inhibitor compositions, methods of making and methods of use” (Black Diamond Therapeutics, Inc., priority 2018, dated 2021).
